Reference: patent publication US20060183773A1, “Uses of methylphenidate derivatives” (priority 2005, published 2006)

Tests used:
Type in all cases: cell-based, human
[1] = system: peripheral blood lymphocytes (PBL); assay: PBL proliferation, Promega cell titer assay; conditions: for proliferation of PBL stimulated with PHA (OD at 530 nm): donor GR283; for proliferation of PBL (OD at 530 nm): Dex 10 μM
Procedure: Whole blood was drawn from GR283, a human volunteer with known allergies, into a glass vacutainer tube containing no anticoagulant. This blood was allowed to clot, and the serum was removed by centrifugation and then heat inactivated by placing it in a water bath at 56° C. for 30 minutes. Whole blood from GR283 was also drawn into a glass vacutainer tube containing heparin and used for peripheral blood lymphocytes (PBL) isolation as follows. Whole blood was layered over room temperature Histopaque 1077 solution and centrifuged at 2000 rpm for 15 minutes at room temperature. Cells at the plasma-Histopaque interface were then removed and washed with culture medium (IMDM medium with 10% heat-inactivated GR283 serum plus 1% penicillin/streptomycin) at 37° C.
Then, GR283's PBL in culture medium were added to the wells to give a final concentration of 150,000 cells per well, and the plates were incubated at 37° C., 5% CO2 for 24 hours. After this incubation, phytohemagglutinin (PHA) in culture medium was added to give final concentrations of 2 μg/ml, 5 μg/ml or 20 μg/ml, final total volume of 200 μl/well, and the cells were incubated for an additional 72 hours at 37° C., 5% CO2. All cultures were performed in triplicate.
Cell proliferation was assayed by adding 20 μl of Promega cell titer solution to each well and incubating the plate for an additional 4 hours. Promega cell titer solution is a solution containing a tetrazolium dye that is reduced by living cells to a formazan dye, and this reduction is proportional to the number of living cells present in the well. After the 4-hour incubation, the optical density (OD) at 530 nm of each well was measured. The OD at 530 nm for blank wells containing no cells was subtracted from the OD of the experimental wells.
Then, GR467's PBL in culture medium were added to the wells to give a final concentration of 150,000 cells per well, and the plates were incubated at 37° C., 5% CO2 for 24 hours. After this incubation, PHA was added to give a final concentration of 2 μg/ml, final total volume of 200 μl/well, and the cells were incubated for an additional 72 hours at 37° C., 5% CO2. All cultures were performed in triplicate.
Then, GR191's PBL in culture medium were added to the wells to give a final concentration of 150,000 cells per well, and the plates were incubated at 37° C., 5% CO2 for 24 hours. After this incubation, PHA was added to give final concentrations of 2 μg/ml and 5 μg/ml, final total volume of 200 μl/well, and the cells were incubated for an additional 72 hours at 37° C., 5% CO2. All cultures were performed in triplicate.

IL-13 = IL-13 release by PBL, ELISA; conditions: Dex 10 μM; for IL-13 release induced by PHA: donor GR467, 2 μg/ml PHA, 96 h, Cpd II 15 μg/ml, MP 15 μg/ml, FIG. 3
Procedure: After this incubation, PHA was added to give a final concentration of 2 μg/ml, and the cells were incubated for an additional 96 hours at 37° C., 5% CO2. All cultures were performed in triplicate. Cells were then removed by centrifugation at 1000 rpm for 10 minutes, and the culture medium collected.
Release of IL-13 and interferon gamma (IFNγ) into the culture medium was measured by ELISA. To perform the ELISA, matched pairs of antibodies against human IL-13 and IFNγ were purchased from Pierce Biotechnology and Biosource, respectively. ELISA strip well plates were coated with 10 μg/ml of antibody (in phosphate-buffered saline (PBS)) to IL-13 and 4 μg/ml of antibody to IFNγ (in PBS) overnight at room temperature. The plates were then blocked using a 4% BSA solution in PBS for one hour, followed by the addition of 50 μl of experimental culture medium per well in duplicate. The plates were incubated at room temperature for one hour and then washed using 50 mM Tris pH 8.0 with 0.1% Tween 20. Then, solutions of 400 ng/ml biotinylated second antibody to IL-13 and 500 ng/ml biotinylated second antibody to IFNγ were made in blocking buffer, and 100 μl were added per well. The plates were incubated for 1 hour and washed again. A 1:8000 dilution of Strepavidin HRP (Pierce Biotechnology) conjugate was made in blocking buffer, and 100 μl were added to the wells and incubation continued for 30 minutes. A final wash step was performed, after which 100 μl Pierce Biotechnology TMB substrate were added to each well. Color was developed for 30 minutes and stopped by adding 100 μl 0.18 N H2SO4. OD was determined using microplate reader with a 450 nm filter.
After this incubation, PHA was added to give a final concentration of 5 μg/ml, and the cells were incubated for an additional 72 hours at 37° C., 5% CO2. All cultures were performed in triplicate. Cells were then removed by centrifugation at 1000 rpm for 10 minutes.
The supernatants were collected, and the concentrations of IL-13 and tumor necrosis factor alpha (TNFα) in the supernatants were measured by ELISA. […]

c-Jun = c-Jun in VEGF-treated HUVECs, TransAM AP-1 assay; conditions: for Mean OD 450 nm (c-Jun): control 0.204, VEGF only 0.261
Procedure: The flasks were incubated overnight at 37° C., 5% CO2 After this incubation, vascular endothelial growth factor (VEGF) (obtained from Sigma) was added to give a final concentration 10 ng/ml, and the flasks were incubated for an additional 30 minutes.
The amount of c-Jun was determined using a TransAM™ AP-1 Family Transcription Factor Assay Kit and a Nuclear Extract Kit from Active Motif North America, Carlsbad, Calif., according to manufacturer's instructions. Briefly, a nuclear extract of the cells was prepared using the Nuclear Extract Kit. Then, the nuclear extract was added to the wells of a 96-well plate in which oligonucleotide containing a TPA-responsive element (TRE) was immobilized. Activator protein-1 (AP-1) dimers contained in the nuclear extract were bound to this oligonucleotide and were detected using an antibody specific for c-Jun. A secondary antibody conjugated to horseradish peroxidase (HRP) was next added to provide a colorimetric readout that was quantified by spectrophotometry (measurement at 450 nm).

COC(=O)C(c1ccccc1)C1CCCCN1 (stereo not shown) [methylphenidate]
proliferation of PBL stimulated with PHA (OD at 530 nm) ([1]; methylphenidate at the other dose / PHA combinations): did not significantly reduce the proliferation of the PHA-stimulated PBL
proliferation of PBL stimulated with PHA (OD at 530 nm) ([1]; methylphenidate highest dose (50 μg/ml), lowest PHA dose (2 μg/ml)): showed a significant effect at its highest dose and the lowest PHA dose
IL-13 release induced by PHA (IL-13): increased the release of IL-13 by the PHA-stimulated cells
Mean OD 450 nm (c-Jun) (c-Jun; VEGF 10 ng/ml + 15 μg/ml): 0.230 ± 0.016

COC(=O)C(c1ccc(-c2ccccc2)cc1)C1CCCCN1 (stereo not shown) [Cpd II]
proliferation of PBL (OD at 530 nm) ([1]; donor GR191, unstimulated and PHA 2, 5 μg/ml, Cpd II 5, 15, 25, 50 μg/ml, MP 50 μg/ml, FIGS. 5A-B): significantly inhibited the proliferation of PBL, both unstimulated and stimulated with PHA
proliferation of PBL stimulated with PHA (OD at 530 nm) ([1]; PHA 2, 5, 20 μg/ml, Cpd II 5, 15, 50 μg/ml, Dex 10 μg/ml, FIGS. 1A-C): significantly inhibited the proliferation of PBL stimulated with PHA in a dose-dependent manner
proliferation of PBL (OD at 530 nm) ([1]; donor GR467, unstimulated and 2 μg/ml PHA, Cpd II 5, 15, 25 μg/ml, MP 15 μg/ml, FIG. 2): significantly inhibited the proliferation of PBL, both unstimulated and stimulated with PHA
release of IL-13 from PHA-stimulated PBL (IL-13; donor GR191, 5 μg/ml PHA, 72 h, Cpd II 15 and 50 μg/ml, FIG. 6): significantly inhibited the release of IL-13
IL-13 release induced by PHA (IL-13): significantly inhibited IL-13 release induced by PHA
Mean OD 450 nm (c-Jun) (c-Jun; VEGF 10 ng/ml + 1 μg/ml): 0.221 ± 0.008
Mean OD 450 nm (c-Jun) (c-Jun; VEGF 10 ng/ml + 5 μg/ml): 0.185 ± 0.025
Mean OD 450 nm (c-Jun) (c-Jun; VEGF 10 ng/ml + 15 μg/ml): 0.204 ± 0.010
amount of c-Jun (in words) (c-Jun; VEGF, 15 μg/ml and 5 μg/ml): completely eliminated the increase in the amount of c-Jun
